The target in this test is T1, mouse sweet receptor (mT1R2/mT1R3) (Mus musculus, UniProt Q925D8).
T1 construct: expressed in transfected cells
T1 sequence (Q925D8 21-858): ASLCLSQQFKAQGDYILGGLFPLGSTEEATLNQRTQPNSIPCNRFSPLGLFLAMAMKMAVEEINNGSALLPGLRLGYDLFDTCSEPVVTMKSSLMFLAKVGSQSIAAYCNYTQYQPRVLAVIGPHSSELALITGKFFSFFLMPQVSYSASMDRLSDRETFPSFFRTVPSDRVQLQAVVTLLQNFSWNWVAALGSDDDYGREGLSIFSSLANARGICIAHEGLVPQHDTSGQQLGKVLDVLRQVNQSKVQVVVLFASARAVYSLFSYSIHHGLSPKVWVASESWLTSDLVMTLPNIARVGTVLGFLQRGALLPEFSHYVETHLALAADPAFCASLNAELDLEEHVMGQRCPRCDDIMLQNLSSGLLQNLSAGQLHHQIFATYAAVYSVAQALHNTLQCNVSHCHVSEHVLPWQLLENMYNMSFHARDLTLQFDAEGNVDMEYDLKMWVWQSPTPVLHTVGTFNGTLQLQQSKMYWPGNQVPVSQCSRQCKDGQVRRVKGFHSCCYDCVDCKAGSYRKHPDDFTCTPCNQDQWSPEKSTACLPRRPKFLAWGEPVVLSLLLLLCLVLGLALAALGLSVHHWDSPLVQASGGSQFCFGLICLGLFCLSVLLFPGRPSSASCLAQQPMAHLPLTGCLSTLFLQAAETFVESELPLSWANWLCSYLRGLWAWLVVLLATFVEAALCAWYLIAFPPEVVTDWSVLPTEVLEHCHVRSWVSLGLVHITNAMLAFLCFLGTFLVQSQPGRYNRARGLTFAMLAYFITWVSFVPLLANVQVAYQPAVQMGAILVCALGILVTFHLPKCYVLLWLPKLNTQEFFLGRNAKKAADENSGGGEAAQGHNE
T1 sequence (Q925I4 20-843 partner): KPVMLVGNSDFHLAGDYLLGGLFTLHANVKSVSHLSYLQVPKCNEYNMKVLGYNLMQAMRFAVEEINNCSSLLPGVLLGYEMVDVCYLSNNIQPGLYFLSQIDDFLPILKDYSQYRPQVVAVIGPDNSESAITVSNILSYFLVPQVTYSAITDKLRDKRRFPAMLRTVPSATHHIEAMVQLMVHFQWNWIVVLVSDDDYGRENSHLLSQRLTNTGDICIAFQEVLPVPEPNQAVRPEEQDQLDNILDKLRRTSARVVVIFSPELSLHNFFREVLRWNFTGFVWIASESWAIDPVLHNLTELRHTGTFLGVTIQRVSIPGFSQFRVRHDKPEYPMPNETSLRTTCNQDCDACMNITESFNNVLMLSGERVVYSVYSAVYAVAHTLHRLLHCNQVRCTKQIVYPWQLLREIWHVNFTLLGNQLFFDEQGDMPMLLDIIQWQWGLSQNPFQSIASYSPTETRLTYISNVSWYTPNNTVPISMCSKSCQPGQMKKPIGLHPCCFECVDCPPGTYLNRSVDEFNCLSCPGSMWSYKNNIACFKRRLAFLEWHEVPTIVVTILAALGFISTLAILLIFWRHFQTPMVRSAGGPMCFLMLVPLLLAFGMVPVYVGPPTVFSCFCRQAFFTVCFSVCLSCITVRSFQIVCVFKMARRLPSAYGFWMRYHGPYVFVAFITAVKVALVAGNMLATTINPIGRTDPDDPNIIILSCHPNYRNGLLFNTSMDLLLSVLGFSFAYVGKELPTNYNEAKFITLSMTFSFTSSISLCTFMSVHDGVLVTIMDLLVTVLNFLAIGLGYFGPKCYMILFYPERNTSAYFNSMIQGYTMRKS
Kind of test: sweet receptor inhibition assay, mouse receptor. In kind it is cell-based. From the text: The human T1R3 transmembrane domain determines sensitivity to lactisole, phenoxy herbicides, and fibrates. Inhibition of the receptor's response to sucralose occurred only in the presence of the transmembrane domain of human T1R3. […] Chimeric receptors of T1R3 contained the extracellular portion of human or mouse receptor and the transmembrane domain and C-terminal domain from mouse or human receptor: mh indicates the presence of the mouse extracellular domain and human transmembrane domain; hm indicates the presence of the human extracellular domain and mouse transmembrane domain.

For `CC(C)(Oc1ccc(Cl)cc1)C(=O)O` [clofibric acid], the “effect on the mouse receptor” value was “no effect”.

The values are drawn from US20150045610A1, “METHOD OF MODIFYING SPERMATOGENESIS, SPERMIOGENESIS AND/OR FERTILITY IN MAMMALS” (Monell Chemical Senses Center, priority 2012, published 2015).
